Holding throughout (format): functional
For test [1], the target named is T1, Replicative DNA helicase DnaB (Mycobacterium tuberculosis, UniProt P9WMR3).
T1 sequence (P9WMR3 whole entry): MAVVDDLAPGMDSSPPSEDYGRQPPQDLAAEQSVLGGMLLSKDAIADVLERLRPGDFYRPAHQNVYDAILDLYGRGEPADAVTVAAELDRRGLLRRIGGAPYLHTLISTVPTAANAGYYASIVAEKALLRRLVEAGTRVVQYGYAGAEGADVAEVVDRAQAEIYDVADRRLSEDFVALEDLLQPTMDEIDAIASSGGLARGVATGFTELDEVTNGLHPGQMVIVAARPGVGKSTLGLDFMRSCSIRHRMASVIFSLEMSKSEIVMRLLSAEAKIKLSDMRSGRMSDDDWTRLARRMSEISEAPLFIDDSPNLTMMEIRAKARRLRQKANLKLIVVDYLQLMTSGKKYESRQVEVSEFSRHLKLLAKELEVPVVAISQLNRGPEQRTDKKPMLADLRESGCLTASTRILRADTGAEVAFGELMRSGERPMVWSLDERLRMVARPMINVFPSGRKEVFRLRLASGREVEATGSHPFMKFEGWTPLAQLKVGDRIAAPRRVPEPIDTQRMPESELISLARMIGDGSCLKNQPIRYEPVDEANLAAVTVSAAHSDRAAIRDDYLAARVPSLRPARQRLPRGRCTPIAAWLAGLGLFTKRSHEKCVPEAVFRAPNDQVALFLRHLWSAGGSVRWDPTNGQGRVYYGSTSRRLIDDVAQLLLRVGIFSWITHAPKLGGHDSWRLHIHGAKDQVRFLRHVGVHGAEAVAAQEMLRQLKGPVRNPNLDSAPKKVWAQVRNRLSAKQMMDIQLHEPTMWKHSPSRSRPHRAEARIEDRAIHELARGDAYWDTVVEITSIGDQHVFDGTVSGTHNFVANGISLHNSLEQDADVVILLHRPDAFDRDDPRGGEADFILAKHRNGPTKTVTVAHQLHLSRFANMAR
The experiment in a line: DnaB intein splicing inhibitors, dose response, biochemical, cell-free fluorescence (AID 449749).

A further test has as its target T2, Protein RecA (Mycobacterium tuberculosis, UniProt P9WHJ3).
T2 sequence (P9WHJ3 whole entry): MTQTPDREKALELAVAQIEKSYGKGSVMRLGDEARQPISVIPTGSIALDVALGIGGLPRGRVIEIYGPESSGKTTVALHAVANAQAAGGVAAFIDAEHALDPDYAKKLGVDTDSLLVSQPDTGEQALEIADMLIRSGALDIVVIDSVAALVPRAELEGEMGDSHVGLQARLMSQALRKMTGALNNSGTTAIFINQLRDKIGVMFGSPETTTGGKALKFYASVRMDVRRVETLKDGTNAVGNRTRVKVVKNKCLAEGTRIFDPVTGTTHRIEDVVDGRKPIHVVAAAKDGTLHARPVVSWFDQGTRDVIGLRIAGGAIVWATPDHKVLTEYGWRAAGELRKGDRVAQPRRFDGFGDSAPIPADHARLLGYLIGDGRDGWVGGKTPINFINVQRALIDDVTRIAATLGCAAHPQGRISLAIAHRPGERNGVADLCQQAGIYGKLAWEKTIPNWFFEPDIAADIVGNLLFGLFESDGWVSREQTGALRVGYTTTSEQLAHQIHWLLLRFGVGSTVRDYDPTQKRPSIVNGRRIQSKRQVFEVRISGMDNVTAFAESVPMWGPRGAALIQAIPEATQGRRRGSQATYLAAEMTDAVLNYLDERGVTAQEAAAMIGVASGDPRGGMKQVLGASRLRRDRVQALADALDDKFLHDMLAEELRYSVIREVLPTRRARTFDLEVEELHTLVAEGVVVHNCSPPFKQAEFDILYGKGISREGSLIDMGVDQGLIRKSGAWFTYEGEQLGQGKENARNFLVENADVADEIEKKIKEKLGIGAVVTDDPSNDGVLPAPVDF
Put plainly: Fluorescence Cell-Free Homogeneous Dose Retest to Identify Inhibitors of RecA-Intein Splicing Activity. [Related pubchem assays (depositor defined):AID2097, AID2223, AID489010, AID492950].

In test [2] the target is 26S proteasome non-ATPase regulatory subunit 14 (Homo sapiens, UniProt O00487). Put plainly: inhibition of proteasome subunit RPN11 – biochemical, fluorescence polarization, uHTS hits, confirmation (AID 602368). A general note: Polarisation of emitted light reports the rotation of a fluorescent probe.
In test [3] the target is 72 kDa type IV collagenase (Homo sapiens, UniProt P08253). Put plainly: Dose Response validation of uHTS RPN11 inhibitor hits using a MMP-2 Fluorescence assay.
The target of the next test is Prothrombin (Bos taurus, UniProt P00735). Put plainly: thrombin protease inhibitors – biochemical, fluorescence polarization, uHTS hits, dose response (AID 602369).
Test [4] has as its target T3, Sentrin-specific protease 8 (Homo sapiens, UniProt Q96LD8).
T3 sequence (Q96LD8 whole entry): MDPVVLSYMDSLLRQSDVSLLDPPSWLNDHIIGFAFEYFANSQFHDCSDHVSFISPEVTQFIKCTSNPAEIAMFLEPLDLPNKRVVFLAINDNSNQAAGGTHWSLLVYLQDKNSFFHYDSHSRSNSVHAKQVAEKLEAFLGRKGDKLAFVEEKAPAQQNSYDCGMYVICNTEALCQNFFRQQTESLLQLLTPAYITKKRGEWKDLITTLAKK
The experiment in a line: inhibition of human SENP8 cleavage activity – biochemical, luminescence, SAR follow-up (AID 504501).

Another test addresses T4, Caspase-3 (Homo sapiens, UniProt P42574).
T4 sequence (P42574 whole entry): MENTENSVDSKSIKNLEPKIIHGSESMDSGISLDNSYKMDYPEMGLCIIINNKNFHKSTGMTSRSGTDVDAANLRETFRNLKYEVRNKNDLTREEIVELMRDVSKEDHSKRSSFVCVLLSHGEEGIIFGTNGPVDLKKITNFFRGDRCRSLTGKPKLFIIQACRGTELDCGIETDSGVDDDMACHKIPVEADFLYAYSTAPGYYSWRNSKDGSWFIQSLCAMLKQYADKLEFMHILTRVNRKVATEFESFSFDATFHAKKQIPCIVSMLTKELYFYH
Put plainly: SAR Analysis of small molecule inhibitors of Sentrin-specific proteases (SENPs) using a Caspase-3 Selectivity assay. [Related pubchem assays (depositor defined):AID2540, AID2599, AID434973, AID489001].

Test [5] has as its target T5, Sentrin-specific protease 6 (Homo sapiens, UniProt Q9GZR1).
T5 sequence (Q9GZR1 whole entry): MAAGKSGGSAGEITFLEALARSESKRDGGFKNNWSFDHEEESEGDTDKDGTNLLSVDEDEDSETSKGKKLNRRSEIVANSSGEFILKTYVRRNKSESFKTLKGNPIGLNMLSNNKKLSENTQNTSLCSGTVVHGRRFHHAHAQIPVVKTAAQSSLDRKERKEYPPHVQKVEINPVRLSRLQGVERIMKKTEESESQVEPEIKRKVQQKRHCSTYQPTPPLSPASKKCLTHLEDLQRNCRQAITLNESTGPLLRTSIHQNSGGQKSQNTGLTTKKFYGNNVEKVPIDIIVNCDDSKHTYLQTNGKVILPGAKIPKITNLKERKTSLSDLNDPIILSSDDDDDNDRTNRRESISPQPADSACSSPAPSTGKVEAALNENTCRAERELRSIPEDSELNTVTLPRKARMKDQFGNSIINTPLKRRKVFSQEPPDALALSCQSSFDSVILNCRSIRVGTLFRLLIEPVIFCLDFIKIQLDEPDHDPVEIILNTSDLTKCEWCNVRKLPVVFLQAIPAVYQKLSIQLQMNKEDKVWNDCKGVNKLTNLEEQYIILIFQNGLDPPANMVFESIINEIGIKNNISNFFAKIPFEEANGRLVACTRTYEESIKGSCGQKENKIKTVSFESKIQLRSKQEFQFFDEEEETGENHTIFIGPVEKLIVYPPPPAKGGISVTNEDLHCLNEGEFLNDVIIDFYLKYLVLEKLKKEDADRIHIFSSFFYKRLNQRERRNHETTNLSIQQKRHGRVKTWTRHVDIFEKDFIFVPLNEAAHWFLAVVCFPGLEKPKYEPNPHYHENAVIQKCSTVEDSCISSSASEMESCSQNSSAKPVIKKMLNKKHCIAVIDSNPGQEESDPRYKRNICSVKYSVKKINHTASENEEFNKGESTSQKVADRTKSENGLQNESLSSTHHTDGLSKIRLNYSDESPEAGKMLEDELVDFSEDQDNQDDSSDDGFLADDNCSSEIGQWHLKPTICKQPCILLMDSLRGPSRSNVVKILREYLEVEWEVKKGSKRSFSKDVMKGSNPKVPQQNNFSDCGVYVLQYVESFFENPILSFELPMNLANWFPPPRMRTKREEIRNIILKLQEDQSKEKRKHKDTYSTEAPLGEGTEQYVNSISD
Put plainly: SAR Analysis of small molecule inhibitors of Sentrin-specific protease 6 (SENP6) using a Luminescent assay. [Related pubchem assays (depositor defined):AID2582, AID2599].

Test [6] deals with T6, Sentrin-specific protease 7 (Homo sapiens, UniProt Q9BQF6).
T6 sequence (Q9BQF6 whole entry): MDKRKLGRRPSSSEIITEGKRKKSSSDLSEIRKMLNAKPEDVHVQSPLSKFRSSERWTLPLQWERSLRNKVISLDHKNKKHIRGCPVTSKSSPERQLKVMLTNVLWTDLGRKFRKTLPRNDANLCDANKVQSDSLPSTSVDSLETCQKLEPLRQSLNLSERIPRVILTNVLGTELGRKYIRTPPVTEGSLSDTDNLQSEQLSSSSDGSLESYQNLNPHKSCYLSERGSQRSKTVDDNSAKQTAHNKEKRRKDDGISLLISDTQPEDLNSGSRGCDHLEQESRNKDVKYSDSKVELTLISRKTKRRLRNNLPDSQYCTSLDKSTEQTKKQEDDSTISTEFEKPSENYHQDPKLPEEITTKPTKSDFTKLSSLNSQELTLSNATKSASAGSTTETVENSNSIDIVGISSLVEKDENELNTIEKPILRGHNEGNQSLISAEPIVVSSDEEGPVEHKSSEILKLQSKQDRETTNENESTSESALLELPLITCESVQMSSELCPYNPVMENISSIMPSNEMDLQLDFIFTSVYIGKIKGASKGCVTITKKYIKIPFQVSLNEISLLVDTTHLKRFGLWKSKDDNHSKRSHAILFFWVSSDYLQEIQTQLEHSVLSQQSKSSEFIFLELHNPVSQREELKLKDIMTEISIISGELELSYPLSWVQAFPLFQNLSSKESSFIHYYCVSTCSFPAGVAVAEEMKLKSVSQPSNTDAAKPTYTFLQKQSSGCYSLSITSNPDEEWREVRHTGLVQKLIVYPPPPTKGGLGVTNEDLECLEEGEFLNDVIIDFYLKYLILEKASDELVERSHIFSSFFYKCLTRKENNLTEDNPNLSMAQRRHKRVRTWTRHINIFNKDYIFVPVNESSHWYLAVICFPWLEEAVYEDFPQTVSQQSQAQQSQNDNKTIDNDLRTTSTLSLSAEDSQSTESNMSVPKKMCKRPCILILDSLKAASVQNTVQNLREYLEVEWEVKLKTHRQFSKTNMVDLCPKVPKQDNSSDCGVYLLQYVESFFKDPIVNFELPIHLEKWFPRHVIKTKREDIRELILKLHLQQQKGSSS
Put plainly: inhibition of human SENP7 cleavage activity – biochemical, luminescence, SAR follow-up (AID 504497).

In test [7] the target is T7, Carboxy-terminal domain RNA polymerase II polypeptide A small phosphatase 1 (Homo sapiens, UniProt Q9GZU7).
T7 sequence (Q9GZU7 whole entry): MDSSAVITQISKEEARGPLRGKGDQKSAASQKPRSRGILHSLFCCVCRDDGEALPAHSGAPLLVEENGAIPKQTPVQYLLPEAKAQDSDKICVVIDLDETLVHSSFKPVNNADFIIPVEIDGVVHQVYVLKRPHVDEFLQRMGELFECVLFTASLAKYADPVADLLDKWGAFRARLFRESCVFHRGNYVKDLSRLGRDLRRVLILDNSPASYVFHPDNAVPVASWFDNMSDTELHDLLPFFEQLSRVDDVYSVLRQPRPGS
The experiment in a line: CTDSP1 inhibitors, concentration-response, biochemical, absorbance readout, ultra-high-throughput screen actives (AID 540297).

Calls of active or inactive are those of the source. For most assays here, no stated cut-off is given here; in the data, actives have a measured IC50 and inactives only a lower limit.

These results are taken from ChEMBL document CHEMBL1201862, “PubChem BioAssay data set” (2004).

Chain of 26S proteasome non-ATPase regulatory subunit 14 (O00487 whole entry): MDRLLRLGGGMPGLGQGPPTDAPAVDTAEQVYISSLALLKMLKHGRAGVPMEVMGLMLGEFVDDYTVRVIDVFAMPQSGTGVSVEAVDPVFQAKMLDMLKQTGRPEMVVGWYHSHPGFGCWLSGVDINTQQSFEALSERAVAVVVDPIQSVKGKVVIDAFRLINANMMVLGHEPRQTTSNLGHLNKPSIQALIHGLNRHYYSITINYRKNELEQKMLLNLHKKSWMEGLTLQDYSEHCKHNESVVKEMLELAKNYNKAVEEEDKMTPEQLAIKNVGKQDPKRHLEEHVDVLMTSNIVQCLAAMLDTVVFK
Chain of 72 kDa type IV collagenase (P08253 whole entry): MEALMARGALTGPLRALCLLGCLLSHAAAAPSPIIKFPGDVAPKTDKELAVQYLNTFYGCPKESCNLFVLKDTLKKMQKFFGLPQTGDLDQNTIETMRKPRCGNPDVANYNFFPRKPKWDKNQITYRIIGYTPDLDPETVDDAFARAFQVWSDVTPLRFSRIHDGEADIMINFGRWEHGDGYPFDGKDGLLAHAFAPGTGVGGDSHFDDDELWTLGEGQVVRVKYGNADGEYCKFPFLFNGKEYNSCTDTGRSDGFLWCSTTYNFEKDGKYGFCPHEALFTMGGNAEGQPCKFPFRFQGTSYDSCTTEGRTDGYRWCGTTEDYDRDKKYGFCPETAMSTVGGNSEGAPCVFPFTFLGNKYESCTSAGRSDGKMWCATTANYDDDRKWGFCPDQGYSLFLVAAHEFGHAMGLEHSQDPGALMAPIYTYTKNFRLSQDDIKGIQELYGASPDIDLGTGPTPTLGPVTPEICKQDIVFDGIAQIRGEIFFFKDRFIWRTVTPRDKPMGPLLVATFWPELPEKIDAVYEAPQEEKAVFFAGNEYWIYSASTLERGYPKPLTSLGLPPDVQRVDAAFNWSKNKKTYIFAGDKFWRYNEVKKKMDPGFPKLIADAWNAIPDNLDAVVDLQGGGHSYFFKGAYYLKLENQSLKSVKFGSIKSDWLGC

For the compound `O=C(O)CN1C(=O)/C(=C\c2ccc(OC(=O)c3ccco3)cc2)SC1=S`, the AC50 in test [1] was 165 µM (active). For the same compound, at Protein RecA, the EC50 is 20.3 µM (active). The IC50 in [2] is 25.4 µM (active); in [3], > 100 µM (inactive); on Prothrombin, 27.8 µM (active).
On to `COc1ccc(CCC(=O)Nc2ccc(-c3noc(/C=C/c4ccccc4)n3)cc2)cc1`, for which the IC50 (in [4]; on Caspase-3; in test [5]; in test [6]) was > 99 µM (inactive) in each case.
On to `CC(=O)Nc1ccc(/C(C)=N/NC(=O)c2ccc(COc3ccccc3Cl)o2)cc1`, for which the half-maximal inhibitory concentration (IC50) was 7.9 µM (active) in test [7], 24.8 µM (active) in [2], > 100 µM (inactive) in [3] and 43.6 µM (active) at Prothrombin.
Consider `FC(F)(F)c1ccc(N/N=C/c2c[nH]c3ccccc23)cc1`, for which the IC50 (in test [4]; at Caspase-3; in test [5]; in [6]) was > 99 µM (inactive) throughout.
Consider `CCN(CC)c1ccc(/C=N/Nc2nc(N3CCCC3)nc(N3CCCC3)n2)cc1`, for which the IC50 (in test [4]; at Caspase-3; in [5]; in test [6]) was > 99 µM (inactive) throughout.
Consider `Cc1ccc(C(=O)CSc2cc(C)nc(=O)[nH]2)cc1`, for which the IC50 was 33.8 µM (active) in test [2], 27.9 µM (active) in test [3] and 47.5 µM (active) on Prothrombin.

The term AC50 denotes the concentration at which the activity in the assay is half-maximal. As a reminder, the EC50 is the concentration that produces a half-maximal response. Usually IC50 stands for the concentration at which inhibition is half-maximal.
